Laboratory results reported in PMC8728736, “A Reactivity-Based ^18F-Labeled Probe for PET Imaging of Oxidative Stress in Chemotherapy-Induced Cardiotoxicity” (Molecular Pharmaceutics, 2021).

Assays:
[1] = Vial stability by radio-HPLC; format: physicochemical; settings: room temperature, 4 h
Method: ^18F-FPBT (1–4 MBq) in 100% ethanol or 5% ethanol in PBS containing sodium ascorbate (0.01 mg/mL) was kept at room temperature for 4 h and then analyzed by radio-HPLC.

[2] = Serum stability at 37 °C by radio-HPLC; format: in vitro ADME, rat; settings: rat serum, ice-cold acetonitrile precipitation
Method: ^18F-FPBT (∼3.0 MBq) in 5% ethanol in PBS (200 μL) containing sodium ascorbate (0.01 mg/mL) was incubated with rat serum (200 μL) at 37 °C for 1 min or 1 h. Subsequently, plasma proteins were precipitated from the supernatant with ice-cold acetonitrile (1.5 mL), and samples were centrifuged (3 min, 13 000 rpm). The residual activity in the pellet was <3%. The supernatant (∼2.0 MBq, 1.0 mL) was analyzed by radio-HPLC. HPLC method: ZORBAX column (300SB-C18, semipreparative 9.4 mm × 250 mm, 5 μm) using acetonitrile and water as the mobile phase, at a flow rate of 3.0 mL/min. The following gradient was used: from 50% to 90% acetonitrile in 15 min; kept at 90% acetonitrile for 10 min; from 90 to 50% acetonitrile in 5 min.
^18F-FBPT-Ox (2–4 MBq, 50 μL in 10% EtOH/PBS) was added to serum (500 μL) and incubated at 37 °C for 5, 15, and 30 min, respectively. Plasma proteins were precipitated with a 5-sulfosalicylic acid water solution (10% w/v, 1 mL) and centrifuged (3 min, 13 000 rpm). The supernatant was removed and diluted with 500 μL of DI H2O and analyzed via radio-HPLC. A control experiment was performed where ^18F-FBPT-Ox (2 MBq, 50 μL in 10% EtOH/PBS) was added to 500 μL of PBS, incubated at 37 °C for 30 min. A 5-sulfosalicylic acid water solution (10% w/v, 1 mL) was added, thoroughly mixed, then diluted with 500 μL of DI H2O, and analyzed via radio-HPLC. […]

[3] = Reactivity of 18F-FPBT to reactive oxygen species: hydroxyl radical; settings: Fenton-reaction-generated hydroxyl radicals 100 μM, 5 min
Method: (§1) ^18F-FPBT (0.5–2.0 MBq) was reacted with potassium superoxide (source of superoxide, 1 mg), hydrogen peroxide (100 μM), Fenton-reaction-generated hydroxyl radicals (100 μM), iron(II) sulfate heptahydrate (100 μM), tert-butyl hydroperoxide (100 μM), tert-butoxy radical (100 μM), and 3-morpholinosydnomine (source of peroxynitrite (100 μM)) for 5 min or diethylamine NONOate (source of nitric oxide, 100 μM) for 30 min at room temperature, after which it was subjected to radio-HPLC analysis and % oxidation was calculated.

[4] = Reactivity of 18F-FPBT to reactive oxygen species: tert-butoxy radical; settings: 100 μM, 5 min
Method: as §1

[5] = Reactivity of 18F-FPBT to reactive oxygen species: hydrogen peroxide; settings: 100 μM, 5 min
Method: as §1

[6] = Reactivity of 18F-FPBT to reactive oxygen species: peroxynitrite; settings: 3-morpholinosydnomine 100 μM, 5 min
Method: as §1

[7] = Reactivity of 18F-FPBT to reactive oxygen species: nitric oxide; settings: diethylamine NONOate 100 μM, 30 min
Method: as §1

[8] = Reactivity of 18F-FPBT to other biologically relevant ROS; settings: ROS other than superoxide
Method: as §1

[9] = PET/CT imaging of healthy mice; format: in vivo, C57BL/6 mice; settings: iv
Method: C57BL/6 mice (male, 25 ± 2 g, n = 3) were placed on the PET scanner bed and injected with ^18F-FPBT (1.7 ± 0.4 MBq) through the tail vein at the start time of PET acquisition. A dynamic PET scan was performed for 60 min, followed by a CT scan and ex vivo biodistribution. The PET data was reconstructed into 5 frames of 60 s, 3 frames of 300 s, and 4 frames of 600 s. Regions of interest (ROIs) were drawn and quantified using VivoQuant software (v3.0, inviCRO, LLC, Boston, USA). Organ uptake was calculated as standard uptake values (SUV), and data are reported as mean ± SD.

[10] = Ex vivo biodistribution in doxorubicin-treated and control rats after PET; set-up: species or system Wistar rats; settings: for Ex vivo biodistribution, Blood / Ex vivo biodistribution, Bone / Ex vivo biodistribution, Heart / Ex vivo biodistribution, Kidney / Ex vivo biodistribution, Large Intestine / Ex vivo biodistribution, Liver / Ex vivo biodistribution, Lung / Ex vivo biodistribution, Muscle / Ex vivo biodistribution, Small Intestine / Ex vivo biodistribution, Spleen / Ex vivo biodistribution, Urine: 40 min post-injection
Method: Male Wistar rats (280–300 g) were used in all experiments. Subcutaneous 7 day osmotic pumps (Alzet), containing either doxorubicin (Cambridge Bioscience, 30 mg/kg cumulative dose) or vehicle (sterile 0.9% NaCl), were inserted into rats under 2% isoflurane in 100% oxygen.
Wistar rats that had received either doxorubicin treatment (male, 267 ± 19 g, n = 6) or saline (male, 303 ± 9 g, n = 4) via osmotic pumps for 7 days were injected with ^18F-FPBT (2.6 ± 1.5 MBq) via the tail vein on the PET/CT scanner bed. The time of injection coincided with the beginning of PET acquisition in order to obtain dynamic tracer uptake information. PET scans with the chest area in the field of vision were acquired for 30 min, followed by a CT scan, after which the animals were sacrificed and organs harvested, weighed, and gamma-counted as for the biodistribution protocol. The hearts were frozen in liquid nitrogen for gamma counting and oxidative stress biomarker assays. The PET data was reconstructed into three frames: 0–3 min, 3–10 min, and 10–30 min. For the time–activity curve, the PET data was reconstructed into 1 min per frame in the first 5 min and then 5 min per frame between 5 and 30 min. Using VivoQuant software (v3.0, inviCRO, LLC, Boston, USA), regions of interest (ROIs) were drawn in the left ventricle and blood inside the myocardium. Radioactivity uptake in the heart was calculated as a standard uptake value ratio (SUVR) between left ventricle and blood. Data are reported as mean ± SD. Statistical analysis was performed using one-way ANOVA with Tukey’s multiple comparisons test.

Vial stability ([1]; 5% ethanol in PBS with ascorbic acid (0.01 mg/mL)): stable
Vial stability ([1]; pure ethanol): stable
Residual activity in the pellet after protein precipitation [2]: < 3%
Background retention in heart, lungs, spleen and brain [9]: low nonspecific background retention
Time to excretion by renal and hepatobiliary routes [9]: less than 1 h
Blood clearance ([9]; dynamic PET 60 min): fast blood clearance
Ex vivo biodistribution, Blood ([10]; Doxorubicin group, n = 6): 0.08 ± 0.06 % ID/g
Ex vivo biodistribution, Bone ([10]; Doxorubicin group, n = 6): 0.30 ±0.13 % ID/g
Ex vivo biodistribution, Heart ([10]; Doxorubicin group, n = 6): 0.43 ± 0.08 % ID/g
Ex vivo biodistribution, Kidney ([10]; Doxorubicin group, n = 6): 0.41 ± 0.14 % ID/g
Ex vivo biodistribution, Large Intestine ([10]; Doxorubicin group, n = 6): 1.42 ±2.07 % ID/g
Ex vivo biodistribution, Liver ([10]; Doxorubicin group, n = 6): 0.73 ± 0.24 % ID/g
Ex vivo biodistribution, Lung ([10]; Doxorubicin group, n = 6): 0.31 ± 0.12 % ID/g
Ex vivo biodistribution, Muscle ([10]; Doxorubicin group, n = 6): 0.10 ± 0.04 % ID/g
Ex vivo biodistribution, Small Intestine ([10]; Doxorubicin group, n = 6): 2.23 ± 1.43 % ID/g
Ex vivo biodistribution, Spleen ([10]; Doxorubicin group, n = 6): 0.15 ± 0.07 % ID/g
Ex vivo biodistribution, Urine ([10]; Doxorubicin group, n = 6): 12.5 ± 5.33 % ID/g
Ex vivo biodistribution, Blood ([10]; Saline group, n = 4): 0.07 ± 0.02 % ID/g
Ex vivo biodistribution, Bone ([10]; Saline group, n = 4): 0.25 ± 0.22 % ID/g
Ex vivo biodistribution, Heart ([10]; Saline group, n = 4): 0.42 ± 0.17 % ID/g
Ex vivo biodistribution, Kidney ([10]; Saline group, n = 4): 0.42 ± 0.19 % ID/g
Ex vivo biodistribution, Large Intestine ([10]; Saline group, n = 4): 0.38 ± 0.20 % ID/g
Ex vivo biodistribution, Liver ([10]; Saline group, n = 4): 0.65 ± 0.13 % ID/g
Ex vivo biodistribution, Lung ([10]; Saline group, n = 4): 0.29 ± 0.05 % ID/g
Ex vivo biodistribution, Muscle ([10]; Saline group, n = 4): 0.08 ± 0.02 % ID/g
Ex vivo biodistribution, Small Intestine ([10]; Saline group, n = 4): 3.33 ± 3.38 % ID/g
Ex vivo biodistribution, Spleen ([10]; Saline group, n = 4): 0.11 ± 0.02 % ID/g
Ex vivo biodistribution, Urine ([10]; Saline group, n = 4): 5.25 ± 3.05 % ID/g
Structure (SMILES): [18F]CCCN1c2ccccc2SC1c1ccccc1 (centres unmarked) [^18F-FPBT, 3-(3-[^18F]Fluoropropyl)-2-phenyl-2,3-dihydrobenzo[d]thiazole]
Reactivity to hydroxyl radical [3]: inert
Oxidation by tert-butoxy radical [4]: no oxidation was observed
Reactivity to hydrogen peroxide [5]: some reactivity
Reactivity to peroxynitrite [6]: some reactivity
Reactivity to nitric oxide [7]: some reactivity
Reactivity to other biologically relevant ROS [8]: little or no reactivity
Post-mortem heart uptake in doxorubicin-treated animals, in words ([10]; 30 min post IV injection): did not show an increased uptake
